# Assay results taken from patent publication US6566086B1, “Diagnostic kit for detecting creatine levels” (FAL Diagnostics, priority 2000, dated 2003).
# What was measured:
# [1] = 1H NMR detection of the interaction of substance 42 with creatine; assay type: binding; conditions: CD3OD solution; creatine added to the test solution
# Method: The ability of substance 42 to detect creatine was evaluated by ^1H NMR spectroscopy. […] (Bell, T. W. et al. 36th National Organic Symposium, U. of Wisconsin, Madison, Wis., Jun. 13, 1999-Jun. 17, 1999). [drawing 32] [drawing 33]
# [2] = tested on: animal models of Huntington's disease; conditions: oral supplementation; cited from earlier work
smiles,measurement,setting,value
O=C(O)c1ccc2c(n1)-c1nc3nc4c(cc3cc1CC2)CCc1ccc(C(=O)O)nc1-4 [Substance 42],ability to detect creatine (interaction with creatine by 1H NMR),[1],interaction of creatine with substance 42 was detected
"N=C1NCCN1CC(=O)O [cyclocreatine, 1-carboxymethyl-2-iminoimidazolidine]",protection from malonate lesions,[2],protect the animals from malonate lesions
